# Results as given in paper PMC4790851, “Iminosugars Inhibit Dengue Virus Production via Inhibition of ER Alpha-Glucosidases—Not Glycolipid Processing Enzymes” (PLoS Neglected Tropical Diseases, 2016).
# Tests used:
# [1] = system: monosialodihexosylganglioside (GM3) production; assay: Glycosphingolipid analysis: GM3 levels in MDMΦs by NP-HPLC; type: cell-based, human; settings: 48 h; for GM3 production (%): uninfected MDMΦ, normalized to untreated controls, mean ± SD, min. 3 donors
# [2] = target: T1, ER α-glucosidase I (Homo sapiens, UniProt Q13724); assay: Free oligosaccharide analysis in MDMΦs: Glc3Man5GlcNAc1; type: cell-based; settings: 48 h; for FOS representative of ER α-glucosidase I inhibition (Glc3Man5GlcNAc1): MNTD of iminosugar (NB-DNJ 100 μM), uninfected MDMΦs; for accumulation of Glc3Man5GlcNAc1: MDMΦs
# T1 construct: endogenous in cells; host or cells: primary human monocyte-derived macrophages (MDMΦ)
# T1 sequence (Q13724 1-837): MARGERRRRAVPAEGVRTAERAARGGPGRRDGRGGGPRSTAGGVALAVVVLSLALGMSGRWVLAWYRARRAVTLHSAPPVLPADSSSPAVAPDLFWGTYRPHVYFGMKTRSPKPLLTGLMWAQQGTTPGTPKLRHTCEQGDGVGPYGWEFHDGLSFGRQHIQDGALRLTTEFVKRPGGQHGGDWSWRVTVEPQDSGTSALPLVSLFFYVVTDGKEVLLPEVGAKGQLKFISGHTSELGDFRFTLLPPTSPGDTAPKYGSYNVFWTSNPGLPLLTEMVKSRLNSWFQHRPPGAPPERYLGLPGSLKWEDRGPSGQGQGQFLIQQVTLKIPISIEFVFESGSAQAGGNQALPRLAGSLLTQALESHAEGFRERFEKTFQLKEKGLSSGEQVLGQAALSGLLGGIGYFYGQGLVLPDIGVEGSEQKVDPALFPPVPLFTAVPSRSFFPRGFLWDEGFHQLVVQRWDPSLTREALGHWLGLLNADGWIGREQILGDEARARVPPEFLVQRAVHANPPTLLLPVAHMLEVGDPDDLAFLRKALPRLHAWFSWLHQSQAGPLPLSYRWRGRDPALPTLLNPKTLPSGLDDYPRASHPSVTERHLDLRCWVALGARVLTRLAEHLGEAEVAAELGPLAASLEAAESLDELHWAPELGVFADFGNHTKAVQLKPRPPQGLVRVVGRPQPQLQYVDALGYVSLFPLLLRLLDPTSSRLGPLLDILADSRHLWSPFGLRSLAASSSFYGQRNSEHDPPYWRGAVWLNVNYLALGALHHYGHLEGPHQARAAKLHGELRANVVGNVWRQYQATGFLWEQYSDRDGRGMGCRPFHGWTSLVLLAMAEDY
# Protocol: MDMΦ were infected with DENV2 16681 diluted to a multiplicity of infection (MOI) of 1 in X-VIVO10 without supplements for 90 minutes (20°C, with rocking). Upon removal of virus, fresh MDMΦ growth medium without IL-4 but containing serial dilutions of drug or control was placed on the cells, and cells were incubated for 48 hours (37°C, 5% CO2). For collection of infectious virus, supernatant was harvested and centrifuged for 5 minutes (room temperature, 400 x g) to pellet any cells/debris, and supernatants were aliquoted and stored at -80°C until analysis by plaque assay. In the case of FOS and GSL assays where MDMΦ were uninfected, treatments were essentially as above except that no virus was added and cells were washed three times with sterile PBS after 24 or 48 hours as per sample time point. On the third wash, cells were removed from tissue culture plastic by mechanical disruption (scraping) and transferred to microcentrifuge tubes for centrifugation (room temperature, 4000 x g, 5 minutes). Cells were lysed by three cycles of freeze-thawing (alternating room temperature and –80°C) in deionised H2O and stored at –80°C for subsequent protein, FOS, or GSL assay.
# MDMΦ FOS were detected as previously described by Alonzi et al.. Cells were cultured in 6-well plates as described above, and protein lysates were prepared according to the freeze/thaw protocol. Following cell lysis, samples were subjected to mixed-bed ion exchange and then lyophilised. FOS were labelled with 2-aminobenzoic acid (2-AA) and purified using a DPA-6S column (Sigma). Unconjugated 2-AA was removed by phase splitting with ethyl acetate, and samples were lyophilised and resuspended in water and then purified using a con-A column. Glycans were separated by normal phase-high performance liquid chromatography (NP-HPLC), and peak area was used to assess molar quantity in comparison to standards of known identity and quantity. FOS generation was normalised to protein concentration based on a modified Bradford assay as previously described. Briefly, cell lysates were added in a 1:1 volumetric ratio to 1x Bradford Quick Start Reagent (Bio-Rad) and incubated at 20°C for 5 minutes. Absorbance values (Axxx) at 595 nm and 420 nm were measured, and the ratio of A595 to A420 was used to determine protein concentration in comparison to a serially diluted standard of bovine serum albumin.
# [3] = target: T2, Rat intestinal isomaltase (Rattus norvegicus, UniProt P23739); assay: In vitro enzyme inhibition, glucose release from disaccharide; type: biochemical; settings: concentration required to inhibit the enzyme to 50% activity; read-out: IC50
# T2 construct: from tissue; host or cells: rat intestine
# [4] = target: T3, Rat intestinal sucrase (Rattus norvegicus, UniProt P23739); assay: as above; type: biochemical; settings: concentration required to inhibit the enzyme to 50% activity; read-out: IC50
# T3 construct: from tissue; host or cells: rat intestine
# T3 sequence (P23739 whole entry): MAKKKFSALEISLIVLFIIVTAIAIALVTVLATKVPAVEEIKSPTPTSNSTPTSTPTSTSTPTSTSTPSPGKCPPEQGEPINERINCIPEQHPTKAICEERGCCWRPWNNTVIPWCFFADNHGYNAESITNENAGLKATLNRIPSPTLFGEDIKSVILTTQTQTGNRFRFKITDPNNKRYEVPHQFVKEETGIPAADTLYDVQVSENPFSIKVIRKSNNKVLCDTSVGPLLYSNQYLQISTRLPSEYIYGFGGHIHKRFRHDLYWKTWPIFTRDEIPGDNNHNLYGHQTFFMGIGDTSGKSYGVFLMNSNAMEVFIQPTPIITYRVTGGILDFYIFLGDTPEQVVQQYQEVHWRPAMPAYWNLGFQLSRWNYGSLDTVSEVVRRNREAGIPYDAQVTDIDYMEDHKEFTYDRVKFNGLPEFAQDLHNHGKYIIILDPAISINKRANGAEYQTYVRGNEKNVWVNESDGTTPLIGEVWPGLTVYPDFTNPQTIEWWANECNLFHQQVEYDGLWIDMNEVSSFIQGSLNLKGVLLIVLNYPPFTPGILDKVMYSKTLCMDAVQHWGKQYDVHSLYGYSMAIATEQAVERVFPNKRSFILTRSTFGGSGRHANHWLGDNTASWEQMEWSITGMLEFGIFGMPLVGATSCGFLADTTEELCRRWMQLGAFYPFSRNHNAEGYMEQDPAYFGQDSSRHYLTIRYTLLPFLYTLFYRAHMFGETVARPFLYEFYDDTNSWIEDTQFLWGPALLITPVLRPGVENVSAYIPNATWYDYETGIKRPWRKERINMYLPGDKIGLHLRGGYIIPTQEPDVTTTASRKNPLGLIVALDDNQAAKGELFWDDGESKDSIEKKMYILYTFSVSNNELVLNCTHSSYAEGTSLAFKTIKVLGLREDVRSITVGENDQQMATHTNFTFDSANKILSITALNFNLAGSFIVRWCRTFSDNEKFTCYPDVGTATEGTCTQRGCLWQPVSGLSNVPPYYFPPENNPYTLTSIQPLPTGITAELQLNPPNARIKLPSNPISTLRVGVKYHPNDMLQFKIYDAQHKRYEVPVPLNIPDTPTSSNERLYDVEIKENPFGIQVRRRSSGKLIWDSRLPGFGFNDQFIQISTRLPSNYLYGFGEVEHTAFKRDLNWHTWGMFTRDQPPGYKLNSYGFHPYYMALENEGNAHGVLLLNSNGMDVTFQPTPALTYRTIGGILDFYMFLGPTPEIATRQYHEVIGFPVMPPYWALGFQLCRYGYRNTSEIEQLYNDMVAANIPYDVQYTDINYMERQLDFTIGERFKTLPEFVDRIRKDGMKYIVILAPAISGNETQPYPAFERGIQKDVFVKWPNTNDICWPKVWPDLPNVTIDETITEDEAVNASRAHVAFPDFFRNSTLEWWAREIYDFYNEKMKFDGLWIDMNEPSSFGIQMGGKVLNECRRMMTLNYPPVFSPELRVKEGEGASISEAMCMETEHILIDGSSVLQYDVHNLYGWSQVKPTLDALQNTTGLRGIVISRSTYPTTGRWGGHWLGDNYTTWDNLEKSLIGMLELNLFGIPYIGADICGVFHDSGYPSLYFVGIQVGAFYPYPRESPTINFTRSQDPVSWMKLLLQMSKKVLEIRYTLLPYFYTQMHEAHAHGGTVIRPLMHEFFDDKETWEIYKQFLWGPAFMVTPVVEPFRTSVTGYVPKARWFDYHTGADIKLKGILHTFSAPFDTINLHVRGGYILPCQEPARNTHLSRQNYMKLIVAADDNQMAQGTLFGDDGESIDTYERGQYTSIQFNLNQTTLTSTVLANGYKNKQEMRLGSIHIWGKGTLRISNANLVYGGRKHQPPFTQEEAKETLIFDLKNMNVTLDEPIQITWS
# T2 sequence (P23739 whole entry): as above
IC50 [3] [µM],SMILES,GM3 production (%) ([1]; 31.6 μM (MNTD)),FOS representative of ER α-glucosidase I inhibition (Glc3Man5GlcNAc1) [2],IC50 [4] [µM],GM3 production (%) ([1]; 100 μM (MNTD)),"accumulation of Glc3Man5GlcNAc1 ([2]; 1 μM, all donors)",accumulation of Glc3Man5GlcNAc1 ([2]; 31.6 and 100 μM),"inhibition at 10 µM ([1]; Homo sapiens, 10 μM, MDMΦs) [%]","EC50 ([1]; Homo sapiens, titration 1 to 100 μM, three donors, read-out: 95% CI for GM3 EC50) [µM]"
> 1000,CCCCCCCCCN1C[C@H](O)[C@@H](O)[C@@H](O)[C@H]1CO [NN-DGJ],4.9 ± 1.9,fail to produce detectable ER α-glucosidase associated FOS,> 1000,–,–,–,–,–
–,"CCCCN1C[C@H](O)[C@@H](O)[C@H](O)[C@H]1CO [NB-DNJ, N-butyl-DNJ]",–,accumulation of peaks representative of inhibition of both α-glucosidases,0.44,8.8 ± 3.6,not Glc3Man5GlcNAc1,–,90 to 95,0.8 to 1.37
> 1000,CCCCN1C[C@H](O)[C@@H](O)[C@@H](O)[C@H]1CO [NB-DGJ],–,fail to produce detectable ER α-glucosidase associated FOS,> 1000,7.3 ± 1.9,–,–,–,–

SMILES,IC50 [3] [µM],GM3 production (%) ([1]; 31.6 μM (MNTD)),FOS representative of ER α-glucosidase I inhibition (Glc3Man5GlcNAc1) [2],IC50 [4] [µM],GM3 production (%) ([1]; 100 μM (MNTD)),"accumulation of Glc3Man5GlcNAc1 ([2]; 1 μM, all donors)",accumulation of Glc3Man5GlcNAc1 ([2]; 31.6 and 100 μM),"inhibition at 10 µM ([1]; Homo sapiens, 10 μM, MDMΦs) [%]","EC50 ([1]; Homo sapiens, titration 1 to 100 μM, three donors, read-out: 95% CI for GM3 EC50) [µM]"
"CCCC(=O)O[C@H]1CN2CC[C@H](O)[C@@H]2[C@@H](O)[C@@H]1O [Celgosivir, 6-O-butanoyl-castanospermine]",29.3,–,–,2.7,100.9 ± 4.1,not Glc3Man5GlcNAc1,increasing accumulation of Glc3Man5GlcNAc1,–,–
